# According to US9701662B2, “Herbicidal compounds” (Syngenta Participations AG, priority 2014, dated 2017):
# Legend:
# Assay type in all cases: in vivo
# [1] = test system: Amaranthus retoflexus (AMARE); test: Post-emergence glasshouse herbicide test; settings: post-emergence (sprayed after 8 days cultivation), 1000 g/h, evaluated after 13 days, five point scale
# Method: (§1) Seeds of a variety of test species are sown in standard soil in pots (Lolium perenne (LOLPE), Solanum nigrum (SOLNI), Amaranthus retoflexus (AMARE), Setaria faberi (SETFA), Echinochloa crus-galli (ECHCG), Ipomoea hederacea (IPOHE)). After cultivation for one day (pre-emergence) or after 8 days cultivation (post-emergence) under controlled conditions in a glasshouse (at 24/16° C., day/night; 14 hours light; 65% humidity), the plants are sprayed with an aqueous spray solution derived from the formulation of the technical active ingredient in acetone/water (50:50) solution containing 0.5% Tween 20 (polyoxyethelyene sorbitan monolaurate, CAS RN 9005-64-5). Compounds are applied at 1000 g/h. The test plants are then grown in a glasshouse under controlled conditions in a glasshouse (at 24/16° C., day/night; 14 hours light; 65% humidity) and watered twice daily. After 13 days for pre and post-emergence, the test is evaluated for the percentage damage caused to the plant. The biological activities are shown in the following table on a five point scale (5=80-100%; 4=60-79%; 3=40-59%; 2=20-39%; 1=0-19%).
# [2] = test system: Echinochloa crus-galli (ECHCG); test: Post-emergence glasshouse herbicide test; settings: post-emergence (sprayed after 8 days cultivation), 1000 g/h, evaluated after 13 days, five point scale
# Method: as §1
# [3] = test system: Ipomoea hederacea (IPOHE); test: Post-emergence glasshouse herbicide test; settings: post-emergence (sprayed after 8 days cultivation), 1000 g/h, evaluated after 13 days, five point scale
# Method: as §1
# Lolium perenne (LOLPE) [4] = test: Post-emergence glasshouse herbicide test; settings: post-emergence (sprayed after 8 days cultivation), 1000 g/h, evaluated after 13 days, five point scale
# Method: as §1
# Setaria faberi (SETFA) [5] = test: Post-emergence glasshouse herbicide test; settings: post-emergence (sprayed after 8 days cultivation), 1000 g/h, evaluated after 13 days, five point scale
# Method: as §1
# Solanum nigrum (SOLNI) [6] = test: Post-emergence glasshouse herbicide test; settings: post-emergence (sprayed after 8 days cultivation), 1000 g/h, evaluated after 13 days, five point scale
# Method: as §1
# [7] = test system: Amaranthus retoflexus (AMARE); test: Pre-emergence glasshouse herbicide test; settings: pre-emergence (sprayed after one day cultivation), 1000 g/h, evaluated after 13 days, five point scale
# Method: as §1
# [8] = test system: Echinochloa crus-galli (ECHCG); test: Pre-emergence glasshouse herbicide test; settings: pre-emergence (sprayed after one day cultivation), 1000 g/h, evaluated after 13 days, five point scale
# Method: as §1
# [9] = test system: Ipomoea hederacea (IPOHE); test: Pre-emergence glasshouse herbicide test; settings: pre-emergence (sprayed after one day cultivation), 1000 g/h, evaluated after 13 days, five point scale
# Method: as §1
# Lolium perenne (LOLPE) [10] = test: Pre-emergence glasshouse herbicide test; settings: pre-emergence (sprayed after one day cultivation), 1000 g/h, evaluated after 13 days, five point scale
# Method: as §1
# Setaria faberi (SETFA) [11] = test: Pre-emergence glasshouse herbicide test; settings: pre-emergence (sprayed after one day cultivation), 1000 g/h, evaluated after 13 days, five point scale
# Method: as §1
# Solanum nigrum (SOLNI) [12] = test: Pre-emergence glasshouse herbicide test; settings: pre-emergence (sprayed after one day cultivation), 1000 g/h, evaluated after 13 days, five point scale
# Method: as §1
Compound,"percentage damage caused to the plant, AMARE, POST Application [1]","percentage damage caused to the plant, ECHCG, POST Application [2]","percentage damage caused to the plant, IPOHE, POST Application [3]","percentage damage caused to the plant, LOLPE, POST Application (Lolium perenne (LOLPE) [4])","percentage damage caused to the plant, SETFA, POST Application (Setaria faberi (SETFA) [5])","percentage damage caused to the plant, SOLNI, POST Application (Solanum nigrum (SOLNI) [6])","percentage damage caused to the plant, AMARE, PRE Application [7]","percentage damage caused to the plant, ECHCG, PRE Application [8]","percentage damage caused to the plant, IPOHE, PRE Application [9]","percentage damage caused to the plant, LOLPE, PRE Application (Lolium perenne (LOLPE) [10])","percentage damage caused to the plant, SETFA, PRE Application (Setaria faberi (SETFA) [11])","percentage damage caused to the plant, SOLNI, PRE Application (Solanum nigrum (SOLNI) [12])"
CCOc1c(C(=O)Nc2nnnn2C)nn(C)c(=O)c1-c1ccccc1 [Compound 1.031],5 (5=80-100%),5 (5=80-100%),5 (5=80-100%),4 (4=60-79%),5 (5=80-100%),5 (5=80-100%),5 (5=80-100%),5 (5=80-100%),5 (5=80-100%),3 (3=40-59%),5 (5=80-100%),5 (5=80-100%)
CCOc1c(C(=O)Nc2nnnn2C)nn(C)c(=O)c1-c1ccc(Cl)c(Cl)c1 [Compound 1.032],5 (5=80-100%),5 (5=80-100%),4 (4=60-79%),4 (4=60-79%),5 (5=80-100%),5 (5=80-100%),5 (5=80-100%),5 (5=80-100%),4 (4=60-79%),4 (4=60-79%),5 (5=80-100%),5 (5=80-100%)
COc1cccc(-c2c(Cl)c(C(=O)Nc3nnnn3C)nn(C)c2=O)c1 [Compound 1.036],5 (5=80-100%),5 (5=80-100%),4 (4=60-79%),5 (5=80-100%),5 (5=80-100%),5 (5=80-100%),5 (5=80-100%),5 (5=80-100%),2 (2=20-39%),5 (5=80-100%),5 (5=80-100%),5 (5=80-100%)
Cn1nnnc1NC(=O)c1nn(C)c(=O)c(-c2ccccc2C(F)(F)F)c1Cl [Compound 1.037],5 (5=80-100%),5 (5=80-100%),5 (5=80-100%),5 (5=80-100%),5 (5=80-100%),5 (5=80-100%),5 (5=80-100%),5 (5=80-100%),5 (5=80-100%),5 (5=80-100%),5 (5=80-100%),5 (5=80-100%)
